What all share (format): in vivo
The test system of test [1] is superoxide production in left ventricular homogenates (gp91^phox, RAC-1, heme oxygenase). The experiment in a line: Assessment of superoxide production in HF-fed mice. The text has this: Adult (8-week-old) male […] mice (Precinct Animal Centre, Melbourne, Australia) and RAGE knockout (KO) mice^17 ([…] al., J Clin Invest. 113:1641-50, 2004) were housed in a temperature-controlled room on a 12-h light-dark cycle. Mice were placed on either a standard diet (AIN-93G; Specialty feeds, Perth AUS; n=10/group) or a high fat (HF) diet formulated to mimic a “Western fast food diet”, (SF05-031, Specialty Feeds; n=10). Both diets contained the same vitamin and calorie content. […] Animals receiving a HF diet were further randomized to receive alagebrium chloride at a dose of 1 mg/kg/day delivered by oral gavage. All groups were followed for 16 weeks. The production and accumulation of superoxide and other ROS is a key mediator of […] injury and cellular dysfunction associated with high fat feeding^5 (Boudina and Abel, Circulation 115:3213-23, 2007). […] Following incubation for 60 min at 37° C., before the rate of superoxide anion formation was determined by the addition of 3.8 μM lucigenin (bis-N-methylacridinium nitrate). […] The expression of the NADPH subunits, NOX-2 (gp91^phox), p47^phox, NOX-4 and RAC-1 in left ventricular homogenates, along with the expression of heme oxygenase (HO) and glutathione peroxidase (GPX), key defence mechanism against oxidative stress, were further assessed by real-time quantitative RT-PCR, as detailed above.

Test [2] deals with cardiac hypertrophy (β-MHC, α-MHC). Briefly: Assessment of cardiac hypertrophy in HF-fed mice. To be noted: HF diet; for Mean myocyte diameter / Total LV mass / Total cardiac mass: 1 mg/kg/day oral gavage; for Gene expression Alpha MHC / Gene expression Beta MHC: real time RT-PCR. The text has this:
Adult (8-week-old) male […] mice (Precinct Animal Centre, Melbourne, Australia) and RAGE knockout (KO) mice^17 ([…] al., J Clin Invest. 113:1641-50, 2004) were housed in a temperature-controlled room on a 12-h light-dark cycle. Mice were placed on either a standard diet (AIN-93G; Specialty feeds, Perth AUS; n=10/group) or a high fat (HF) diet formulated to mimic a “Western fast food diet”, (SF05-031, Specialty Feeds; n=10). Both diets contained the same vitamin and calorie content. […] Animals receiving a HF diet were further randomized to receive alagebrium chloride at a dose of 1 mg/kg/day delivered by oral gavage. All groups were followed for 16 weeks. The total cardiac and isolated left ventricular mass was measured at sacrifice, and expressed adjusted for body surface area in square meters (m^2). […] Cardiac hypertrophy in obesity reactivates the fetal gene program, characterized by a switch to β-Myosin heavy chain (β-MHC) expression in the adult murine heart^8 (Ng et al., Circ Res. 68:1742-50, 1991). Gene expression of markers of pathological hypertrophy, β-MHC and α-MHC were assessed by real-time quantitative RT-PCR. This was performed using the TaqMan system based on real-time detection of accumulated fluorescence, as previously described^19 (Thomas et al., J Am Soc Nephrol. 16:2976-84, 2005). Gene expression was normalized to 18S mRNA and reported as ratios compared to the level of expression in untreated control mice, which were given the arbitrary value of one.
(In general: Quantitative PCR measures a nucleic acid by following its amplification.)

The test system of test [3] is PPARα, CD36, intra-myocardial triacylglycerol. The experiment in a line: Assessment of lipid metabolism in HF-fed mice. To be noted: for Gene expression PPAR alpha: HF diet, real time RT-PCR. The text has this:
Adult (8-week-old) male […] mice (Precinct Animal Centre, Melbourne, Australia) and RAGE knockout (KO) mice^17 ([…] al., J Clin Invest. 113:1641-50, 2004) were housed in a temperature-controlled room on a 12-h light-dark cycle. Mice were placed on either a standard diet (AIN-93G; Specialty feeds, Perth AUS; n=10/group) or a high fat (HF) diet formulated to mimic a “Western fast food diet”, (SF05-031, Specialty Feeds; n=10). Both diets contained the same vitamin and calorie content. […] Animals receiving a HF diet were further randomized to receive alagebrium chloride at a dose of 1 mg/kg/day delivered by oral gavage. All groups were followed for 16 weeks. Changes in myocardial energy metabolism, due to altered substrate handling, characterize obesity-related cardiac disease^5 (Boudina and Abel, Circulation 115:3213-23, 2007). In particular, intra-myocardial accumulation of triacylglycerol metabolites mediated by activation of peroxisome proliferator activated receptor α(PPARα) has been strongly associated with cardiac dysfunction in rodents fed a HF diet^20 (Ouwens et al., Diabetologia 48:1229-37, 2005). To assess the interaction of AGE/RAGE with lipotoxicity pathways in this model, the ventricular expression of PPARα and the fatty acid translocase, CD36, were assessed by real-time quantitative RT-PCR. Intra-myocardial accumulation of triacylglycerol metabolites was assessed by staining with Oil red-O in frozen cardiac sections and quantitated in cardiac homogenates extracted using the method of Bligh and Dyer and measured using a standard commercial enzymatic assay.

SMILES strings stand for the structures.

`Cc1sc[n+](CC(=O)c2ccccc2)c1C.[Cl-]` [alagebrium chloride, 3-(2-phenyl-2-oxoethyl)-4,5-dimethylthiazolium chloride]: in test [1] (RAGE KO mice, HF diet, real time RT-PCR, listed as AL), the “Gene expression relative to 18S (AU/18s)” value is recorded as 0.1 ± 0.1 AU/18s. Further, in test [1] (both wild type and RAGE KO mice, HF diet (FIG. 4)), the “NADH-dependent (mitochondrial) superoxide production in cardiac homogenates” value is on record as “significantly reduced”. Also, the Mean myocyte diameter in test [2] (RAGE KO mice) was 19.5 ± 0.6 μm; in test [2] (Wild-type mice, 1 mg/kg/day), “no effect”; in test [2] (Wild-type mice, listed as AL, 1 mg/kg/day), 19.7 ± 0.8 μm. The “Total LV mass” value came to 9.7 ± 0.3 g/m^2 in test [2] (RAGE KO mice) and 9.5 ± 0.3 g/m^2 in test [2] (Wild-type mice). Besides, the Total cardiac mass in test [2] (RAGE KO mice) turned out to be 13.7 ± 0.6 g/m^2; in test [2] (Wild-type mice), 14.5 ± 0.4 g/m^2. The “Gene expression Alpha MHC” value in test [2] (RAGE KO mice) was “reduced”; in test [2] (RAGE KO mice, listed as AL) it was 0.6 ± 0.2 AU/18s; in test [2] (Wild-type mice), “reduced”; in test [2] (Wild-type mice, listed as AL), 0.7 ± 0.2 AU/18s. Also, the “Gene expression Beta MHC” value in test [2] (RAGE KO mice) was 1.6 ± 0.2 AU/18s; in test [2] (Wild-type mice), “no effect”; in test [2] (Wild-type mice, listed as AL), 2.5 ± 0.3 AU/18s. For the same molecule, the “intramyocardial accumulation of lipid (Oil-red O staining, cardiac triglyceride content)” value in test [3] (HF-fed mice (FIG. 1)) is “unaffected”. The “Expression of the fatty acid translocase, CD36” value in test [3] (HF-fed mice, RT-PCR) is reported as “similar”. For the same molecule, the “Gene expression PPAR alpha” value in test [3] (RAGE KO mice) is listed as “reduced”; in test [3] (RAGE KO mice, listed as AL), 1.2 ± 0.3 AU/18s; in test [3] (Wild-type mice) it was “reduced”; in test [3] (Wild-type mice, listed as AL) it was 1.9 ± 0.4 AU/18s.

For the origin of these results see patent publication US20090088461A1, “Methods of Treating or Preventing Cardiac Disease Associated With a High Fat Diet” (Synvista Therapeutics, Inc., priority 2007, published 2009).
